Laboratory results from US20050226858A1, “Compositions containing reduced coenzyme Q10 and carotenoid” (KANEKA CORPORATION, priority 2004, published 2005).

Tests used:
[1] = tested on: thiobarbituric acid-reactive substances (TBARS) in rat brain homogenate; assay: Antioxidative activity, method 1: TBARS level in oxidised rat brain homogenate; assay type: biochemical; details: ethanol solutions, 100 mM of each substance, 37° C., 27 hours
Protocol: In method 1 of measuring antioxidative activity, a level of thiobarbituric acid-reactive substances (TBARS) generated by an oxidative reaction was determined (Buege J. A. and Aust S. D., Methods Enzymol., 1978, 52: 302).
In this method, rat brain was homogenized in about 2.5 times by weight of saline to prepare a brain homogenate. The brain homogenate (80 μl), an ethanol solution (30 μl) containing antioxidative substance, Eagle's MEM medium (120 μl) , CuSO4 (240 μM), and FeCl3 (240 μM) were mixed and the mixture was maintained at 37° C. for 27 hours. Then, a 20% trichloroacetic acid (TCA) solution (0.9 ml) and a 0.67% thiobarbituric acid (TBA) solution (0.9 ml) were added and the resulting mixture was heated at 100° C. for 30 minutes. After cooling by water, the mixture was centrifuged to separate a supernatant. The absorbance of the supernatant was measured at 532 nm. […] The antioxidative activity (%) of an antioxidative substance was determined by the ratio of a decrease of the TBARS content in the presence of an antioxidative substance to the TBARS content in the absence of an antioxidative substance.
According to the above-mentioned methods, the antioxidative activity (A) in combination of reduced coenzyme Q10 and a carotenoid, the antioxidative activity (B) of reduced coenzyme Q10 used alone, and the antioxidative activity (C) of the carotenoid used alone are measured. […]

[2] = Antioxidative activity, method 2: DPPH spectrometry; details: ethanol solutions, 25 μM of each substance, after 20 minutes, calibrated with catechin
Protocol: Since the TBARS is red, method 1 cannot accurately determine absorbance of some carotenoids. Therefore, spectrometry using 1,1-dipehnyl-2-picrylhydrazyl (DPPH) was also conducted (K. Shinohara and T. Suzuki, Shokuhin-Kinou-Kenkyuho (Methods for Functional Food Analysis), 2000, 218).
In method 2, 12 ml of a 200 mM MES buffer (pH 6.0) was added to 12 ml of a 400 μM DPPH ethanol solution. Then, 12 ml ethanol was added to prepare a mixture. An ethanol solution (0.6 ml) containing an antioxidative substance was added to the mixture (0.9 ml). After 20 minutes, the absorbance of the mixture was measured at 510 nm. In this measuring system, the absorbance decreases as the antioxidative activity of the antioxidative substance increases. The antioxidative activity of the antioxidative substance was quantitatively determined using a calibration curve prepared with catechin. Namely, the minimum absorbance when DPPH radicals were completely consumed with an excess amount of catechin corresponded to 100% antioxidative activity. The maximum absorbance when DPPH radicals were not consumed at all corresponded to 0% antioxidative activity. The calibration curve was drawn from these 2 points and the antioxidative activity (%) was determined from the absorbance of the antioxidative substance.
According to the above-mentioned methods, the antioxidative activity (A) in combination of reduced coenzyme Q10 and a carotenoid, the antioxidative activity (B) of reduced coenzyme Q10 used alone, and the antioxidative activity (C) of the carotenoid used alone are measured. The antioxidative activity in combination of reduced coenzyme Q10 and the carotenoid is compared with the sum (additive effect) of the antioxidative activity of reduced coenzyme Q10 alone and the antioxidative activity of the carotenoid alone in order to investigate the synergistic effect.
In the present invention, both the following two formulae were used to correctly determine if the use in combination of reduced coenzyme Q10 and a carotenoid show synergistic effect. […]

Row | SMILES | Antioxidative Activity (%) (Inhibition Ratio of Oxidation) [1] | Antioxidative Activity (%) (Inhibition Ratio of Oxidation) [2]
1 | CC1=C(/C=C/C(C)=C/C=C/C(C)=C/C=C/C=C(C)/C=C/C=C(C)/C=C/C2=C(C)C(=O)[C@@H](O)CC2(C)C)C(C)(C)C[C@H](O)C1=O [Astaxanthin, astaxanthin] | 21.6 | –
2 | CC(C)=CCC/C(C)=C/C=C/C(C)=C/C=C/C(C)=C/C=C/C=C(C)/C=C/C=C(C)/C=C/C=C(\C)CCC=C(C)C [Lycopene, lycopene] | – | 0.9
3 | COc1c(O)c(C)c(C/C=C(\C)CC/C=C(\C)CC/C=C(\C)CC/C=C(\C)CC/C=C(\C)CC/C=C(\C)CC/C=C(\C)CC/C=C(\C)CC/C=C(\C)CCC=C(C)C)c(O)c1OC [Reduced coenzyme Q10, reduced coenzyme Q10] | 10.9 | 10.3
4 | CC1=C(/C=C/C(C)=C/C=C/C(C)=C/C=C/C=C(C)/C=C/C=C(C)/C=C/C2=C(C)CCCC2(C)C)C(C)(C)CCC1 [β-Carotene, β-carotene] | – | 8.8
